Experimental data: PubChem BioAssay (NCI)
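Where inhibition never reached the appropriate level, the endpoint shown equals the highest concentration tested. Otherwise, values were interpolated linearly from a five-concentration, 48-hour dose response in 96-well plates. The concentration for full growth arrest is given as TGI.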

Columns and labels:
Assay in all cases: inhibition of tumour cell growth, NCI panel, 48 h
EKVX NSCLC = test system: EKVX NSCLC
SK-MEL-2 melanoma = test system: SK-MEL-2 melanoma
MDA-N = test system: MDA-N
CCRF-CEM leukemia = test system: CCRF-CEM leukemia
SNB-19 CNS = test system: SNB-19 CNS
786-0 renal = test system: 786-0 renal
MDA-MB-435 = test system: MDA-MB-435
NCI-H23 lung = test system: NCI-H23 lung
DU-145 prostate = test system: DU-145 prostate
OVCAR-3 ovarian = test system: OVCAR-3 ovarian
A549 NSCLC = test system: A549 NSCLC
SF-268 CNS = test system: SF-268 CNS
OVCAR-5 ovarian = test system: OVCAR-5 ovarian
MALME-3M melanoma = test system: MALME-3M melanoma
NCI-H522 lung = test system: NCI-H522 lung

| SMILES | TGI (EKVX NSCLC) | TGI (SK-MEL-2 melanoma) | TGI (MDA-N) | TGI (CCRF-CEM leukemia) | TGI (SNB-19 CNS) | TGI (786-0 renal) | TGI (MDA-MB-435) | TGI (NCI-H23 lung) | TGI (DU-145 prostate) | TGI (OVCAR-3 ovarian) | TGI (A549 NSCLC) | TGI (SF-268 CNS) | TGI (OVCAR-5 ovarian) | TGI (MALME-3M melanoma) | TGI (NCI-H522 lung) |
| --- | --- | --- | --- | --- | --- | --- | --- | --- | --- | --- | --- | --- | --- | --- | --- |
| O=C(C/C(=N/O)C(F)(F)F)c1cccs1 | > 100 µM | > 100 µM | > 100 µM | > 100 µM | > 100 µM | > 100 µM | > 100 µM | > 100 µM | > 100 µM | > 100 µM | > 100 µM | > 100 µM | > 100 µM |  |  |
| CO/N=C(\C([O-])=N\[n+]1cnn(CC(=O)OC(C)(C)C)c1)c1csc(NC(c2ccccc2)(c2ccccc2)c2ccccc2)n1 | > 10 µM | > 10 µM | > 10 µM | > 10 µM | > 10 µM | > 10 µM |  | > 10 µM | > 10 µM | > 10 µM | > 10 µM | > 10 µM | > 10 µM | > 10 µM | > 10 µM |
| C=CCN1/C(=C2\SC(=S)N(c3ccc(C)cc3)C2=O)Sc2c1ncn(C)c2=O | > 100 µM | > 100 µM |  | > 100 µM | > 100 µM | > 100 µM |  | > 100 µM |  |  | > 100 µM | > 100 µM | > 100 µM |  | > 100 µM |
| CCN(CC)CC1CN=C(N)O1 (centres undefined) | > 100 µM | > 100 µM | > 100 µM | > 100 µM | > 100 µM | > 100 µM | > 100 µM | > 100 µM | > 100 µM | > 100 µM | > 100 µM |  | > 100 µM |  |  |
| CCN(CC)CCn1c(=O)c2c(C)c3oc4ccccc4oc3c(C)c2c1=O | > 100 µM | > 100 µM | > 100 µM | > 100 µM | > 100 µM | > 100 µM | > 100 µM |  |  |  | > 100 µM | > 100 µM | > 100 µM | > 100 µM | > 100 µM |
| Cc1cc2n[n+]3[n-]cc(-c4ccccc4)n3c2cc1[N+](=O)[O-] | > 100 µM | > 100 µM |  | > 100 µM | > 100 µM | > 100 µM | > 100 µM |  | > 100 µM | > 100 µM | > 100 µM |  | > 100 µM |  | > 100 µM |
| COC(=O)C1=C(C(=O)OC)C(N(C)C)C(C(=O)OC)=C(C(=O)OC)S1 |  | > 100 µM | > 100 µM |  | > 100 µM | > 100 µM | > 100 µM | > 100 µM | > 100 µM | > 100 µM | > 100 µM | > 100 µM | > 100 µM |  |  |
| CC(=O)O[C@H]1C(=O)[C@@]2(C)[C@H]([C@H](OC(=O)c3ccccc3)[C@]3(O)C[C@H](OC(=O)[C@H](O)[C@@H](NC(=O)c4ccccc4)c4cccc(N(C)C)c4)C(C)=C1C3(C)C)[C@]1(OC(C)=O)CO[C@@H]1C[C@@H]2O | > 75 µM | > 75 µM | 0.0238 µM |  | > 41.9 µM | 13.3 µM | 0.0388 µM | > 75 µM | 1.58 µM | 0.586 µM | > 75 µM | > 75 µM | > 15.8 µM | > 67.1 µM | 3.69 µM |
| CCOC(=O)[C@@]1(C)CC(O)C(=O)N1C (some centres undefined) | > 100 µM | > 100 µM |  | > 100 µM | > 100 µM | > 100 µM | > 100 µM | > 100 µM | > 100 µM | > 100 µM | > 100 µM | > 100 µM | > 100 µM | > 100 µM | > 100 µM |
| Cc1ccc(S(=O)(=O)C2=c3nc4ccccc4cc3=C3C(=O)c4ccccc4C(=O)C32)cc1 (centres undefined) | > 100 µM | > 100 µM |  | > 100 µM | > 100 µM | > 100 µM |  | > 100 µM |  | > 100 µM | > 100 µM | > 100 µM | > 100 µM | > 100 µM | > 100 µM |
| OC12c3ccccc3C1CCCCCCCCCC21OCCO1 (centres undefined) |  | > 100 µM |  | > 100 µM | > 100 µM | > 100 µM |  | > 100 µM |  | > 100 µM | > 100 µM | > 100 µM | > 100 µM | > 100 µM | > 100 µM |
| CCSc1nc(=S)n(-c2ccccc2)c(C)c1C(C)=O | > 100 µM | > 100 µM |  | > 100 µM | > 100 µM | > 100 µM | > 100 µM | > 100 µM | > 100 µM | > 100 µM | > 100 µM | > 100 µM | > 100 µM | > 100 µM | > 100 µM |
| CCOC(=O)C(Cc1ccccc1)NC(=O)c1[nH]cnc1/N=N/N(C)C (centres undefined) | > 100 µM | > 100 µM |  | > 100 µM | > 100 µM | > 100 µM |  | > 100 µM |  | > 100 µM | > 100 µM | > 100 µM | > 100 µM | > 100 µM | > 100 µM |
| CCCCCCCCCCCCCCCCCCNC(=S)/N=C/c1c(O)c2ccccc2[nH]c1=O | 29.6 µM | 52.2 µM | 35.3 µM |  | 36.3 µM | 29.8 µM | 42.3 µM | 37.5 µM | 29.7 µM | 37.8 µM | 47.6 µM | 29.5 µM | 31.2 µM |  |  |
| C#CC1(O)CCC2[C@@H]3CCc4cc(Oc5nc(F)nc(-c6c7ccccc7c(SCC)n6CCC)n5)ccc4C3CC[C@@]21C (some centres undefined) | > 100 µM | > 100 µM |  | > 100 µM |  | > 100 µM |  | 63.9 µM |  | > 100 µM | > 100 µM | > 100 µM | > 100 µM | > 100 µM |  |
| C=CC(=O)N1C/C(=C\c2ccc([N+](=O)[O-])cc2)C(=O)/C(=C/c2ccc([N+](=O)[O-])cc2)C1 | 0.829 µM | 1.8 µM | 0.856 µM |  | 3.08 µM | 0.249 µM | 1.36 µM | 0.791 µM | 2.36 µM | 1.08 µM | 1.72 µM | 0.338 µM | 1.18 µM | 0.643 µM |  |
| COC(=O)c1c2c(cc3c1CC1(Cc4cc5c(c(C(C)=O)c4C1)CCCC5)C3)CCCC2 (centres undefined) | > 100 µM | 44.5 µM | > 100 µM | 88.1 µM |  | > 100 µM | > 100 µM | > 100 µM |  | > 100 µM | > 100 µM |  | > 100 µM | > 100 µM | > 100 µM |
| O=[N+]([O-])/C=C(\CS(=O)(=O)c1ccccc1)c1ccc2c(c1)OCO2 | > 100 µM |  | > 100 µM | > 100 µM |  | > 100 µM | 76.6 µM | 36.3 µM | > 100 µM | > 100 µM | > 100 µM | > 100 µM | 95.1 µM |  | > 100 µM |
